Earlier results in US20190000853A1, “ANTIVIRAL 4-(2-AMINO-6-HETEROCYLYL-9H-PURIN-9-YL)-2-CYCLOPENTENE-1 -METHANOL COMPOUNDS” (THE UNIVERSITY OF LIVERPOOL, priority 2015, published 2019).

Tested on: HIV-1
Conditions: literature comparison with Abacavir

## Nc1nc(N2CCC2)c2ncn([C@H]3C=C[C@@H](CO)C3)c2n1 [ABC1-4]
  Antiviral potency relative to Abacavir: equipotent to Abacavir
